Assay results as given in patent US8461160B2, “Dihydropyrimidinones” (Hoffmann-La Roche, Inc., priority 2009, dated 2013).

target: T1, BACE2 (Homo sapiens, UniProt Q9Y5Z0); experiment: Fluorescent-peptide cleavage assay for BACE2 inhibition; format: biochemical; conditions: BACE2 enzyme ectodomain, fluorescent peptide WS EVNLD AEFRC-MR121, assay buffer pH 4.5, room temperature
T1 construct: BACE2 enzyme ectodomain (derived from plasmid “pET17b-T7-hu proBACE2”) was prepared as described in Ostermann et al; T7 tag (N); made in house
T1 sequence (Q9Y5Z0 21-473 limits assumed): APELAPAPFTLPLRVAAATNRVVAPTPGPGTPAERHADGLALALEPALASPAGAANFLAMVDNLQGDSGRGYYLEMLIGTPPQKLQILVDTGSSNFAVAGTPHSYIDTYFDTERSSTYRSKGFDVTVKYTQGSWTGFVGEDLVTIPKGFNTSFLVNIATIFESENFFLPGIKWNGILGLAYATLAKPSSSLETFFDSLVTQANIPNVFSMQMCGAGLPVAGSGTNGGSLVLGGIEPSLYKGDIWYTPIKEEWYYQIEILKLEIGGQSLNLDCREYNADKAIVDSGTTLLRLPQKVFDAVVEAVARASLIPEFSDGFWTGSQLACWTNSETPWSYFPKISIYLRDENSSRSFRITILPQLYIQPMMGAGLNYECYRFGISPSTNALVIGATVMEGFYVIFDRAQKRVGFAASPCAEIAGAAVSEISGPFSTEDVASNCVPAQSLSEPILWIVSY
Procedure, shortened: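 Pro-enzyme BACE2 was activated at 80 nM for 1 h at room temperature in 100 mM Na-acetate, 20 mM EDTA, 0.05% BSA, pH 4.5, then preincubated 10 min with compound. IC50 from sigmoidal dose-response fit.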

| Structure (SMILES) | IC50 |
| --- | --- |
| CN1C(=O)C(C)(C)[C@@](C)(c2cc(NC(=O)c3ncoc3-c3ccccc3)ccc2F)N=C1N [Example 109, 5-Phenyl-oxazole-4-carboxylic acid [3-((S)-2-amino-1,4,5,5-tetramethyl-6-oxo-1,4,5,6-tetrahydro-pyrimidin-4-yl)-4-fluoro-phenyl]amide] | 0.17 µM |
| CN1C(=O)C(C)(C)[C@@](C)(c2cc(NC(=O)c3ccc(C(F)(F)F)cn3)ccc2F)N=C1N [Example 110, 5-Trifluoromethyl-pyridine-2-carboxylic acid [3-((S)-2-amino-1,4,5,5-tetramethyl-6-oxo-1,4,5,6-tetrahydro-pyrimidin-4-yl)-4-fluoro-phenyl]amide] | 0.02 µM |
| CN1C(=O)C(C)(C)[C@@](C)(c2cc(NC(=O)c3nccn3C)ccc2F)N=C1N [Example 111, 1-Methyl-1H-imidazole-2-carboxylic acid [3-((S)-2-amino-1,4,5,5-tetramethyl-6-oxo-1,4,5,6-tetrahydro-pyrimidin-4-yl)-4-fluoro-phenyl]amide] | 0.19 µM |
| CN1C(=O)C(C)(C)[C@@](C)(c2cc(NC(=O)c3cn(C)cn3)ccc2F)N=C1N [Example 112, 1-Methyl-1H-imidazole-4-carboxylic acid [3-((S)-2-amino-1,4,5,5-tetramethyl-6-oxo-1,4,5,6-tetrahydro-pyrimidin-4-yl)-4-fluoro-phenyl]amide] | 1.26 µM |
| COc1ccc(C(=O)Nc2ccc(F)c([C@@]3(C)N=C(N)N(C)C(=O)C3(C)C)c2)nc1 [Example 113, 5-Methoxy-pyridine-2-carboxylic acid [3-((S)-2-amino-1,4,5,5-tetramethyl-6-oxo-1,4,5,6-tetrahydro-pyrimidin-4-yl)-4-fluoro-phenyl]amide] | 0.021 µM |
| CN1C(=O)C(C)(C)[C@@](C)(c2cc(NC(=O)c3ccc(F)cn3)ccc2F)N=C1N [Example 114, 5-Fluoro-pyridine-2-carboxylic acid [3-((S)-2-amino-1,4,5,5-tetramethyl-6-oxo-1,4,5,6-tetrahydro-pyrimidin-4-yl)-4-fluoro-phenyl]amide] | 0.043 µM |
| CN1C(=O)C(C)(C)[C@@](C)(c2cc(NC(=O)c3ccc(C#N)cn3)ccc2F)N=C1N [Example 115, 5-Cyano-pyridine-2-carboxylic acid [3-((S)-2-amino-1,4,5,5-tetramethyl-6-oxo-1,4,5,6-tetrahydro-pyrimidin-4-yl)-4-fluoro-phenyl]amide] | 0.063 µM |
| Cc1cc(C(=O)Nc2ccc(F)c([C@@]3(C)N=C(N)N(C)C(=O)C3(C)C)c2)no1 [Example 116, 5-Methyl-isoxazole-3-carboxylic acid [3-((S)-2-amino-1,4,5,5-tetramethyl-6-oxo-1,4,5,6-tetrahydro-pyrimidin-4-yl)-4-fluoro-phenyl]amide] | 0.84 µM |
| CN1C(=O)C(C)(C)[C@@](C)(c2cc(NC(=O)c3ncco3)ccc2F)N=C1N [Example 117, Oxazole-2-carboxylic acid [3-((S)-2-amino-1,4,5,5-tetramethyl-6-oxo-1,4,5,6-tetrahydro-pyrimidin-4-yl)-4-fluoro-phenyl]amide] | 0.23 µM |
| CN1C(=O)C(C)(C)[C@@](C)(c2cc(NC(=O)c3ncc(C(F)(F)F)cc3Cl)ccc2F)N=C1N [Example 118, 3-Chloro-5-trifluoromethyl-pyridine-2-carboxylic acid [3-((S)-2-amino-1,4,5,5-tetramethyl-6-oxo-1,4,5,6-tetrahydro-pyrimidin-4-yl)-4-fluoro-phenyl]amide] | 0.019 µM |
| CN1C(=O)C(C)(C)[C@@](C)(c2cc(NC(=O)c3nc(Cl)ccc3C(F)(F)F)ccc2F)N=C1N [Example 119, 6-Chloro-3-trifluoromethyl-pyridine-2-carboxylic acid [3-((S)-2-amino-1,4,5,5-tetramethyl-6-oxo-1,4,5,6-tetrahydro-pyrimidin-4-yl)-4-fluoro-phenyl]amide] | 0.56 µM |
| CN1C(=O)C(C)(C)[C@@](C)(c2cc(NC(=O)c3cn4cc(Cl)ccc4n3)ccc2F)N=C1N [Example 120, 6-Chloro-imidazo[1,2-a]pyridine-2-carboxylic acid [3-((S)-2-amino-1,4,5,5-tetramethyl-6-oxo-1,4,5,6-tetrahydro-pyrimidin-4-yl)-4-fluoro-phenyl]amide] | 0.043 µM |
| CN1C(=O)C(C)(C)[C@@](C)(c2cc(NC(=O)c3ccn(C(F)F)n3)ccc2F)N=C1N [Example 121, 1-Difluoromethyl-1H-pyrazole-3-carboxylic acid [3-((S)-2-amino-1,4,5,5-tetramethyl-6-oxo-1,4,5,6-tetrahydro-pyrimidin-4-yl)-4-fluoro-phenyl]amide] | 0.017 µM |
| CN1C(=O)C(OCc2ccccc2)[C@@](C)(c2cc(NC(=O)c3ccc(Cl)cn3)ccc2F)N=C1N (stereo partly drawn) [Example 122, 5-Chloro-pyridine-2-carboxylic acid [3-((R)-2-amino-5-benzyloxy-1,4-dimethyl-6-oxo-1,4,5,6-tetrahydro-pyrimidin-4-yl)-4-fluoro-phenyl]amide] | 0.01 µM |
| CN1C(=O)C(O)[C@@](C)(c2cc(NC(=O)c3ccccn3)ccc2F)N=C1N (stereo partly drawn) [Example 123, Pyridine-2-carboxylic acid [3-((R)-2-amino-5-hydroxy-1,4-dimethyl-6-oxo-1,4,5,6-tetrahydro-pyrimidin-4-yl)-4-fluoro-phenyl]amide] | 0.35 µM |
| C[C@@]1(c2cccc(NC(=O)c3ccc(Cl)cn3)c2)CC(=O)N(CC2CC2)C(N)=N1 [Example 124, 5-Chloro-pyridine-2-carboxylic acid [3-((S)-2-amino-1-cyclopropylmethyl-4-methyl-6-oxo-1,4,5,6-tetrahydro-pyrimidin-4-yl)-phenyl]amide] | 0.042 µM |
| CN1C(=O)C[C@@](C)(c2ccc(F)c(NC(=O)c3ccc(Cl)cn3)c2)N=C1N [Example 125, 5-Chloro-pyridine-2-carboxylic acid [5-((S)-2-amino-1,4-dimethyl-6-oxo-1,4,5,6-tetrahydro-pyrimidin-4-yl)-2-fluoro-phenyl]amide] | 0.31 µM |
| CN1C(=O)C(C)(C)[C@@](C)(c2cc(NC(=O)c3ccc(Cl)cn3)ccc2Cl)N=C1N [Example 126, 5-Chloro-pyridine-2-carboxylic acid [3-((S)-2-amino-1,4,5,5-tetramethyl-6-oxo-1,4,5,6-tetrahydro-pyrimidin-4-yl)-4-chloro-phenyl]amide] | 0.036 µM |
| CN1C(=O)C[C@]2(CCc3ccc(NC(=O)c4ccc(Cl)cn4)cc32)N=C1N [Example 127, N-[(1S)-2′-amino-1′-methyl-6′-oxo-2,3,5′,6′-tetrahydro-1′H-spiro[indene-1,4′-pyrimidin]-6-yl]-5-chloropyridine-2-carboxamide] | 0.16 µM |
| CN1C(=O)C[C@]2(CCc3ccc(NC(=O)c4ccccn4)cc32)N=C1N [Example 128, N-[(1S)-2′-amino-1′-methyl-6′-oxo-2,3,5′,6′-tetrahydro-1′H-spiro[indene-1,4′-pyrimidin]-6-yl]pyridine-2-carboxamide] | 1.67 µM |
| CN1C(=O)C[C@]2(CCc3ccc(NC(=O)c4ccc(OCC(F)(F)F)cn4)cc32)N=C1N [Example 129, N-[(1S)-2′-amino-1′-methyl-6′-oxo-2,3,5′,6′-tetrahydro-1′H-spiro[indene-1,4′-pyrimidin]-6-yl]-5-(2,2,2-trifluoro-ethoxy)-pyridine-2-carboxamide] | 0.22 µM |
| CN1C(=O)C[C@]2(CCc3ccc(NC(=O)c4ncccc4C(F)(F)F)cc32)N=C1N [Example 130, N-[(1S)-2′-amino-1′-methyl-6′-oxo-2,3,5′,6′-tetrahydro-1′H-spiro[indene-1,4′-pyrimidin]-6-yl]-3-trifluoromethyl-pyridine-2-carboxamide] | 1.34 µM |
